Usually IC50 stands for the concentration at which inhibition is half-maximal.

Where only a bound is given, the exact number is not on record here.

The text below walks through data of US20210038607A1, “OXADIAZOLYLTHIOPHENE DERIVATIVES USEFUL AS HISTONE DEACETYLASE INHIBITORS” (Karus Therapeutics Limited, priority 2018, published 2021).

In assay [1] the target is T1, Complex of human HDAC3 and human NCOR2 (Homo sapiens, UniProt O15379).
T1 construct: full length with C-terminal His tag, MW=49.7 kDa; His (C); host or cells: baculovirus expression system (co-expressed)
The assay can be described thus: HDAC3 biochemical assay, AMC-labeled peptide substrate. The conditions noted are these: read-out: HDAC Isoform IC50 (nM) 3. An outline of the steps: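 Baculovirus-coexpressed His-tagged full-length HDAC3 with GST-NCOR2 (aa 395-489), 0.1 ng/ul, deacetylates 50 μM RHKK(Ac)AMC in Tris-HCl pH8.0 with BSA and 1% DMSO, 1 h at 30° C. Developer then cleaves deacetylated substrate; fluorescence read at 360/460 Ex/Em.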

Assay [2] has as its target T2, Human HDAC4 (Homo sapiens, UniProt P56524).
T2 construct: amino acids 627-1085 with N-terminal GST tag; GST (N); host or cells: baculovirus expression system
The assay can be described thus: HDAC4 biochemical assay, class IIa-specific substrate. The conditions noted are these: read-out: HDAC Isoform IC50 (nM) 4. An outline of the steps:
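GST-tagged human HDAC4 (aa 627-1085, baculovirus) at 0.004 ng/ul was incubated 30 min at room temperature with 50 μM class IIa-specific substrate BOC-Lys(trifluoroacetyl)-AMC in Tris-HCl pH 8.0 buffer with BSA, 1% DMSO. Developer then released AMC, read at 360/460 nm.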

Assay [3] has as its target T3, Recombinant human HDAC6 (Homo sapiens, UniProt Q9UBN7).
T3 construct: full length, MW=159 kDa; GST (N); host or cells: Sf9 insect cells (baculovirus)
T3 sequence (Q9UBN7 1-1215): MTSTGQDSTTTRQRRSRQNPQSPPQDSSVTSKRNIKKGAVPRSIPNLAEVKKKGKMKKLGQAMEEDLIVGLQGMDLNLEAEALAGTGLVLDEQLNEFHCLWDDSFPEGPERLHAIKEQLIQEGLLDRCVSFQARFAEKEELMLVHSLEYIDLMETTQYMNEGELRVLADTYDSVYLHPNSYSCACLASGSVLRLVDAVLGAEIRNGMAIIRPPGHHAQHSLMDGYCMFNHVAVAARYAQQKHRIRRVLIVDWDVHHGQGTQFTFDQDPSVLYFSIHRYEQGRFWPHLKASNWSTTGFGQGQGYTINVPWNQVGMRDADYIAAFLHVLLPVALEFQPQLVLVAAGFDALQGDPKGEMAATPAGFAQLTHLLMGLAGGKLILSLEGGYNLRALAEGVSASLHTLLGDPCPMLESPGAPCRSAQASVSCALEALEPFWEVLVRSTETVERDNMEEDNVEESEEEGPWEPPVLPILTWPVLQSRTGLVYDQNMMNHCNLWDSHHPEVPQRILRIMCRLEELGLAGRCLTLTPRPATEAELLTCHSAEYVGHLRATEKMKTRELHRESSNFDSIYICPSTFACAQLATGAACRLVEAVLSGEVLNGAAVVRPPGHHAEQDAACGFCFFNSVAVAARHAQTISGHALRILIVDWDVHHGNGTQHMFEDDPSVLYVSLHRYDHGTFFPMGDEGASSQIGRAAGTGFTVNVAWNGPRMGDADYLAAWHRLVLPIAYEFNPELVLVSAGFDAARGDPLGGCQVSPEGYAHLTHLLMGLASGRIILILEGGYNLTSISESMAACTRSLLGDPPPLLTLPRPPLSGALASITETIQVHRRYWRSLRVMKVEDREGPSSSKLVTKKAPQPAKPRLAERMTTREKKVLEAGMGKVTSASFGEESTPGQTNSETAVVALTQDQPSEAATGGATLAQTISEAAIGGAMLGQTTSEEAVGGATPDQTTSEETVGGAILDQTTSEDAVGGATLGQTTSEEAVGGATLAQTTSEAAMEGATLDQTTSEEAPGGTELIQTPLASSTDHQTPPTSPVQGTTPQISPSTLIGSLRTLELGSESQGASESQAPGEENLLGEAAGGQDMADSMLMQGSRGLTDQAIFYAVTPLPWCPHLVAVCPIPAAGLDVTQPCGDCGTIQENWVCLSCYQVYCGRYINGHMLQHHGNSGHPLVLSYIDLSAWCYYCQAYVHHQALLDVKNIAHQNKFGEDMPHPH
Kind of assay: HDAC6 biochemical assay, AMC-labeled peptide substrate. The conditions noted are these: HDAC6; read-out: HDAC Isoform IC50 (nM) 6. An outline of the steps: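 Two-step fluorogenic read-out: enzyme deacetylates 50 μM RHKK(Ac)AMC for 1 h at 30° C in pH 8.0 Tris buffer with BSA and 1% DMSO, then developer cleavage gives signal at Ex 360/Em 460. Enzyme: 0.3 ng/ul recombinant full-length human HDAC6, GST-tagged, Sf9-expressed.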

For assay [4], the target named is T4, Human HDAC9 (Homo sapiens, UniProt Q9UKV0).
T4 construct: amino acids 604-1066 with C-terminal His tag; His (C); host or cells: baculovirus expression system
The assay can be described thus: HDAC9 biochemical assay, class IIa-specific substrate. The conditions noted are these: read-out: HDAC Isoform IC50 (nM) 9. An outline of the steps: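 HDAC9 residues 604-1066 (C-terminal His tag, baculovirus-expressed) at 0.06 ng/ul with 50 μM class IIa substrate Boc-Lys(trifluoroacetyl)-AMC in Tris-HCl pH 8.0 buffer with BSA and 1% DMSO. 30 min at room temperature, then developer added; fluorescence read at 360/460 nm Ex/Em.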

T4 sequence (Q9UKV0 604-1066 isoform Q9UKV0-5): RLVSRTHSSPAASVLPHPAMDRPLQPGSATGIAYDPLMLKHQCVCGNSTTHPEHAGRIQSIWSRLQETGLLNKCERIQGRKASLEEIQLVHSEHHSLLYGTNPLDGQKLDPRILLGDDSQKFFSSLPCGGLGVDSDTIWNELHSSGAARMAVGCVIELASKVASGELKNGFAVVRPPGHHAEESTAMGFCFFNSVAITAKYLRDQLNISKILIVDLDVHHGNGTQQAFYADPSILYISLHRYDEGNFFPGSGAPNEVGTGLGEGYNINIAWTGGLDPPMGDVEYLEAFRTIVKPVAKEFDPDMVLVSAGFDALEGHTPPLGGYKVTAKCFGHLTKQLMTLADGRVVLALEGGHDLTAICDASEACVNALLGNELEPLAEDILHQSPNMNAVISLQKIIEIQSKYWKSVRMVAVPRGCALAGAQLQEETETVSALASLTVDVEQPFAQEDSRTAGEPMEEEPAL
T2 sequence (P56524 627-1084 limits assumed): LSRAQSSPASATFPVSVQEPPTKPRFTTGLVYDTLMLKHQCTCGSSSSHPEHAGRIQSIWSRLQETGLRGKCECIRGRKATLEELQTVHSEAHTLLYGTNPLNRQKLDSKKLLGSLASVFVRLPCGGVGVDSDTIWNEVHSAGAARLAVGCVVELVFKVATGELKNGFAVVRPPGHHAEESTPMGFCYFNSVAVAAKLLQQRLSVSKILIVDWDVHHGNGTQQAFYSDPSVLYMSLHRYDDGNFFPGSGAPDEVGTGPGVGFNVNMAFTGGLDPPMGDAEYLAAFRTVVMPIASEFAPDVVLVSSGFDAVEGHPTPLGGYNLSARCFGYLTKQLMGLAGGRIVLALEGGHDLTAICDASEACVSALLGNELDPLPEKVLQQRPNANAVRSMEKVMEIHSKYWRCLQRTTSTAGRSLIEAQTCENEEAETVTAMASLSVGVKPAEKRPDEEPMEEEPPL
T1 sequence (O15379 whole entry): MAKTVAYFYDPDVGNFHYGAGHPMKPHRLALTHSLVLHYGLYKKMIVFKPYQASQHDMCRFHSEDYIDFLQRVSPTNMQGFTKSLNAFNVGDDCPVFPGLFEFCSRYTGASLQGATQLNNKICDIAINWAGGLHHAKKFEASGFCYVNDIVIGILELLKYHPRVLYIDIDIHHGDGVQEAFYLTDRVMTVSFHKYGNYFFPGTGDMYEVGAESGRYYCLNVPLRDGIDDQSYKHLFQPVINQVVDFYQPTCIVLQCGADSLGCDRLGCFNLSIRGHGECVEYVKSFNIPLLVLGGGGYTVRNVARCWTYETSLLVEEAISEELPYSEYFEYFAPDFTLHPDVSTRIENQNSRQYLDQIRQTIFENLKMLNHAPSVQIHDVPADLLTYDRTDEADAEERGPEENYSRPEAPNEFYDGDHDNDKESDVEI
T1 sequence (Q9Y618 395-489 partner limits assumed): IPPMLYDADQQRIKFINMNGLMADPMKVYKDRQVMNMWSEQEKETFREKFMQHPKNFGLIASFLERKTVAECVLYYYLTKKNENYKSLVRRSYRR

`CC(F)(F)c1cnnc(N(Cc2ccc(-c3noc(C(F)(F)F)n3)s2)c2cnccn2)c1` [Example GU, 5-(1,1-Difluoroethyl)-N-(pyrazin-2-yl)-N-({5-[5-(trifluoromethyl)-1,2,4-oxadiazol-3-yl]thiophen-2-yl}methyl)pyridazin-3-amine]: the IC50 is more than 10000 nM in assay [1], not above 10000 nM in assay [2], not above 500 nM in assay [3] and not above 10000 nM in assay [4].
`FC(F)c1cnnc(N(Cc2ccc(-c3noc(C(F)(F)F)n3)s2)c2cnccn2)c1` [Example GV, 5-(Difluoromethyl)-N-(pyrazin-2-yl)-N-({5-[5-(trifluoromethyl)-1,2,4-oxadiazol-3-yl]thiophen-2-yl}methyl)pyridazin-3-amine]: the IC50 is more than 10000 nM in assay [1], not above 10000 nM in assay [2], not above 500 nM in assay [3] and not above 10000 nM in assay [4].
As to `OC1(c2cnnc(N(Cc3ccc(-c4noc(C(F)(F)F)n4)s3)c3cnccn3)c2)COC1` [Example GW, 3-{6-[(Pyrazin-2-yl)({5-[5-(trifluoromethyl)-1,2,4-oxadiazol-3-yl]thiophen-2-yl}methyl)amino]pyridazin-4-yl}oxetan-3-ol], the IC50 in assay [1] was more than 10000 nM; in assay [2], not above 10000 nM; in assay [3], not above 500 nM; in assay [4] it was not above 10000 nM.
In the case of `C[C@H]1CCCN1C(=O)c1cnnc(N(Cc2ccc(-c3noc(C(F)(F)F)n3)s2)c2cnccn2)c1` [Example GY, 5-[(2S)-2-Methylpyrrolidine-1-carbonyl]-N-(pyrazin-2-yl)-N-({5-[5-(trifluoromethyl)-1,2,4-oxadiazol-3-yl]thiophen-2-yl}methyl)pyridazin-3-amine], the IC50 in assay [1] was more than 10000 nM; in assay [2], not above 10000 nM; in assay [3], not above 500 nM; in assay [4], not above 10000 nM.
In the case of `FC(F)(F)c1nc(-c2ccc(CN(c3ccccn3)c3ccccn3)s2)no1` [Example U, N-(Pyridin-2-yl)-N-({5-[5-(trifluoromethyl)-1,2,4-oxadiazol-3-yl]thiophen-2-yl}methyl)pyridin-2-amine], the IC50 in assay [1] was more than 10000 nM; in assay [2], not above 10000 nM; in assay [3] it was not above 1000 nM; in assay [4] it was not above 10000 nM.
